Results published in patent US11266643B2, “Triaryl compounds for treatment of PD-L1 diseases” (CHEMOCENTRYX, INC., priority 2019, dated 2022).

Each molecule was assayed against human PD-L1 (Homo sapiens (Human), UniProt Q9NZQ7) (assay: Enzyme-Linked Immunosorbent Assay (ELISA), PD-1/PD-L1 binding). Conditions: human PD-1/PD-L1 ELISA, plates coated with human PD-L1.
Procedure: 96 Well plates were coated with […] of human PD-L1 (obtained from R&D) in PBS overnight at 4° C. The wells were then blocked with 2% BSA in PBS (W/V) with 0.05% TWEEN-20 for 1 hour at 37° C. The plates were washed 3 times with PBS/0.05% TWEEN-20 and the compounds were serial diluted (1:5) in dilution medium and added to the ELISA plates. Human PD-1 […] 0.31 μg/mL (ACRO Biosystems) were added and incubated for 1 hour at 37° C. then washed 3 times with PBS/0.05% TWEEN-20. A second block was performed with 2% BSA in PBS (W/V)/0.05% TWEEN-20 for 10 min at 37° C. and the plates were washed 3 times with PBS/0.05% TWEEN-20. Streptavidin-HRP was added for 1 hour at 37° C. then the plates were washed 3 times with PBS/0.05% TWEEN-20. TMB substrate was added and reacted for 20 min at 37° C. A stop solution (2 N aqueous H2SO4) was added. The absorbance was read at 450 nm using a micro-plate spectrophotometer.
Using the methods described in the Examples above, the compounds in Table 2 were prepared & tested for biological activity using the ELISA method described above.

Sequence of human PD-L1 (Q9NZQ7 19-239): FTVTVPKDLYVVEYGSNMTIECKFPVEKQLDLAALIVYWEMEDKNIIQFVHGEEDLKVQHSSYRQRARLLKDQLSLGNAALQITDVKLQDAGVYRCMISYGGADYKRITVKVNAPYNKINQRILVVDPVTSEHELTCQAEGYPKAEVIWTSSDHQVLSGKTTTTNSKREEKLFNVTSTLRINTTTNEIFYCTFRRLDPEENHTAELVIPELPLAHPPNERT

| IC50 [nM] | SMILES |
| --- | --- |
| < 10 | COc1cc(-c2cccc(-c3cccc(NC(=O)c4cn(C)c(=O)n(C)c4=O)c3C)c2F)cc(F)c1CN[C@@H]1CCC(=O)NC1 [Example 1.004] |
| < 10 | COc1cc(-c2cccc(-c3cccc(NC(=O)c4cn(C)c(=O)n(C)c4=O)c3C)c2F)cc(F)c1CN[C@H]1CCC(=O)NC1 [Example 1.005] |
| < 10 | COc1cc(-c2cccc(-c3cccc(NC(=O)c4cn(C)c(=O)n(C)c4=O)c3Cl)c2Cl)cc(F)c1CN[C@H]1CCC(=O)NC1 [Example 1.007] |
| < 10 | COc1cc(-c2cccc(-c3cccc(NC(=O)c4cn(C)c(=O)n(C)c4=O)c3Cl)c2C)cc(F)c1CN[C@@H]1CCC(=O)NC1 [Example 1.009] |
| < 10 | COc1cc(-c2cccc(-c3cccc(NC(=O)c4cn(C)c(=O)n(C)c4=O)c3Cl)c2C)cc(F)c1CN[C@@H]1CCOC[C@@H]1O [Example 1.010] |
| < 10 | COc1cc(-c2cccc(-c3cccc(NC(=O)c4cn(C)c(=O)n(C)c4=O)c3C)c2Cl)cc(F)c1CN[C@H]1CCC(=O)NC1 [Example 1.018] |
| < 10 | COc1cc(-c2cccc(-c3cccc(NC(=O)c4cn(C)c(=O)n(C)c4=O)c3C)c2F)cc(F)c1CN[C@@H]1CNC(=O)C1 [Example 1.020] |
| < 10 | COc1cc(-c2cccc(-c3cccc(NC(=O)c4cn(C)c(=O)n(C)c4=O)c3C)c2F)cc(F)c1CNC[C@@H]1CCC(=O)N1 [Example 1.021] |
| < 10 | COc1cc(-c2cccc(-c3cccc(NC(=O)c4cn(C)c(=O)n(C)c4=O)c3Cl)c2C)cc(F)c1CN[C@H]1CCC(=O)NC1 [Example 1.026] |
| < 10 | COc1cc(-c2cccc(-c3cccc(NC(=O)c4cn(C)c(=O)n(C)c4=O)c3Cl)c2C)cc(F)c1CNC[C@@H]1CCC(=O)N1 [Example 1.030] |
| < 10 | COc1cc(-c2cccc(-c3cccc(NC(=O)c4cn(C)c(=O)n(C)c4=O)c3Cl)c2Cl)cc(F)c1CNC[C@@H]1CCC(=O)N1 [Example 1.031] |
| < 10 | COc1cc(-c2cccc(-c3cccc(NC(=O)c4cn(C)c(=O)n(C)c4=O)c3Cl)c2C)cc(F)c1CNCC(C)(C)C(N)=O [Example 1.032] |
| < 10 | COc1cc(-c2cccc(-c3cccc(NC(=O)c4cn(C)c(=O)n(C)c4=O)c3C)c2Cl)cc(F)c1CN[C@@H]1CNC(=O)C1 [Example 1.035] |
| < 10 | COc1cc(-c2cccc(-c3cccc(NC(=O)c4cn(C)c(=O)n(C)c4=O)c3C)c2Cl)cc(F)c1CNC[C@@H]1CCC(=O)N1 [Example 1.036] |
| < 10 | COc1cc(-c2cccc(-c3cccc(NC(=O)c4cn(C)c(=O)n(C)c4=O)c3F)c2C)cc(F)c1CNC[C@@H]1CCC(=O)N1 [Example 1.037] |
| < 10 | COc1cc(-c2cccc(-c3cccc(NC(=O)c4cn(C)c(=O)n(C)c4=O)c3C)c2C)cc(F)c1CN[C@@H]1CCOC1 [Example 1.038] |
| < 10 | COc1cc(-c2cccc(-c3cccc(NC(=O)c4cn(C)c(=O)n(C)c4=O)c3C)c2C)cc(F)c1CN[C@H]1CCOC1 [Example 1.039] |
| 10 to 1000 | COc1cc(-c2cccc(-c3cccc(NC(=O)c4cn(C)c(=O)n(C)c4=O)c3F)c2C)cc(F)c1CN[C@@H]1CNC(=O)C1 [Example 1.044] |
| < 10 | COc1cc(-c2cccc(-c3cccc(NC(=O)c4cn(C)c(=O)n(C)c4=O)c3Cl)c2C)cc(F)c1CN[C@@H]1CNC(=O)C1 [Example 1.047] |
| < 10 | COc1cc(-c2cccc(-c3cccc(NC(=O)c4cn(C)c(=O)n(C)c4=O)c3C)c2C)cc(F)c1CNC1CCOCC1 [Example 1.052] |

The next lines start with the molecule.

| SMILES | IC50 [nM] |
| --- | --- |
| COc1cc(-c2cccc(-c3cccc(NC(=O)c4cn(C)c(=O)n(C)c4=O)c3C)c2Cl)cc(F)c1CN[C@H]1CCOC[C@@H]1O (racemic) [Example 1.011] | < 10 |
| COc1cc(-c2cccc(-c3cccc(NC(=O)c4cn(C)c(=O)n(C)c4=O)c3C)c2C)cc(F)c1CN[C@H]1CCOC[C@@H]1O (racemic) [Example 1.013] | < 10 |
| COc1cc(-c2cccc(-c3cccc(NC(=O)c4cncn(C)c4=O)c3C)c2C)cc(F)c1CN[C@@H]1CC[C@H]1O (racemic) [Example 1.163] | < 10 |
| COc1cc(-c2cccc(-c3cccc(NC(=O)c4cn(C)c(=O)n(C)c4=O)c3C)c2C)cc(F)c1CN[C@H]1COCC[C@@H]1O [Example 1.001] | < 10 |
| COc1cc(-c2cccc(-c3cccc(NC(=O)c4cn(C)c(=O)n(C)c4=O)c3C)c2C)cc(F)c1CN[C@@H]1COCC[C@H]1O [Example 1.002] | < 10 |
| COc1cc(-c2cccc(-c3cccc(NC(=O)c4cn(C)c(=O)n(C)c4=O)c3Cl)c2Cl)cc(F)c1CN[C@@H]1CCOC[C@H]1O [Example 1.006] | < 10 |
| COc1cc(-c2cccc(-c3cccc(NC(=O)c4cn(C)c(=O)n(C)c4=O)c3Cl)c2Cl)cc(F)c1CN[C@H]1CCOC[C@H]1O [Example 1.008] | < 10 |
| COc1cc(-c2cccc(-c3cccc(NC(=O)c4cn(C)c(=O)n(C)c4=O)c3C)c2C)cc(F)c1CN[C@@H]1CCOC[C@H]1O [Example 1.012] | < 10 |
| COc1cc(-c2cccc(-c3cccc(NC(=O)c4cn(C)c(=O)n(C)c4=O)c3C)c2F)cc(F)c1CN[C@@H]1CCOC[C@@H]1O [Example 1.016] | < 10 |
| COc1cc(-c2cccc(-c3cccc(NC(=O)c4cn(C)c(=O)n(C)c4=O)c3C)c2Cl)cc(F)c1CN[C@@H]1CCOC[C@@H]1O [Example 1.017] | < 10 |
| COc1cc(-c2cccc(-c3cccc(Nc4nccc5nccnc45)c3Cl)c2C)cc(F)c1CNC[C@@H]1CCC(=O)N1 [Example 1.019] | < 10 |
| COc1cc(-c2cccc(-c3cccc(Nc4nccc5nccnc45)c3Cl)c2C)cc(F)c1CNCC(C)(C)C(N)=O [Example 1.022] | 10 to 1000 |
| COc1cc(-c2cccc(-c3cccc(Nc4nccc5nccnc45)c3Cl)c2C)cc(F)c1CN[C@@H]1CNC(=O)C1 [Example 1.023] | 10 to 1000 |
| COc1cc(-c2cccc(-c3cccc(Nc4nccc5nccnc45)c3C)c2Cl)cc(F)c1CN[C@@H]1CNC(=O)C1 [Example 1.024] | < 10 |
| COc1cc(-c2cccc(-c3cccc(Nc4nccc5nccnc45)c3C)c2Cl)cc(F)c1CNC[C@@H]1CCC(=O)N1 [Example 1.027] | < 10 |
| COc1cc(-c2cccc(-c3cccc(Nc4nccc5nccnc45)c3C)c2F)cc(F)c1CNC[C@@H]1CCC(=O)N1 [Example 1.028] | 10 to 1000 |
| COc1cc(-c2cccc(-c3cccc(Nc4nccc5nccnc45)c3C)c2F)cc(F)c1CNCC(C)(C)C(N)=O [Example 1.029] | 10 to 1000 |
| COc1cc(-c2cccc(-c3cccc(NC(=O)c4cn(C)c(=O)n(C)c4=O)c3C)c2F)cc(F)c1CNCC(C)(C)C(N)=O [Example 1.033] | < 10 |

| SMILES | IC50 [nM] |
| --- | --- |
| COc1cc(-c2cccc(-c3cccc(NC(=O)c4cn(C)c(=O)n(C)c4=O)c3C)c2Cl)cc(F)c1CNCC(C)(C)C(N)=O [Example 1.034] | < 10 |
| COc1cc(-c2cccc(-c3cccc(Nc4nccc5nccnc45)c3C)c2C)cc(F)c1CN[C@@H]1CCOC[C@@H]1O [Example 1.040] | < 10 |
| COc1cc(-c2cccc(-c3cccc(Nc4cncc5nccnc45)c3C)c2C)cc(F)c1CN[C@@H]1CCOC[C@@H]1O [Example 1.041] | < 10 |
| COc1cc(-c2cccc(-c3cccc(Nc4cncc5nccnc45)c3C)c2C)cc(F)c1CN[C@H]1CCC(=O)NC1 [Example 1.042] | < 10 |
| COc1cc(-c2cccc(-c3cccc(Nc4cncc5nccnc45)c3C)c2C)cc(F)c1CN[C@@H]1CNC(=O)C1 [Example 1.043] | < 10 |
| COc1cc(-c2cccc(-c3cccc(NC(=O)c4nn(C)c(=O)n(C)c4=O)c3C)c2C)cc(F)c1CNC1CNC(=O)NC1=O (stereo not shown) [Example 1.045] | 10 to 1000 |
| COc1cc(-c2cccc(-c3cccc(Nc4cncc5nccnc45)c3C)c2C)cc(F)c1CNC[C@@H]1CCC(=O)N1 [Example 1.048] | < 10 |
| COc1cc(-c2cccc(-c3cccc(NC(=O)c4c[nH]c(=O)n(C)c4=O)c3C)c2C)cc(F)c1CN[C@@H]1CCOC1 [Example 1.049] | < 10 |
| COc1cc(-c2cccc(-c3cccc(NC(=O)c4c[nH]c(=O)n(C)c4=O)c3C)c2C)cc(F)c1CN[C@H]1CCOC1 [Example 1.050] | < 10 |
| COc1cc(-c2cccc(-c3cccc(NC(=O)c4cncn(C)c4=O)c3C)c2C)cc(F)c1CNCC1CCNC(=O)C1 (stereo not shown) [Example 1.051] | < 10 |
| COc1cc(-c2cccc(-c3cccc(NC(=O)c4c[nH]c(=O)n(C)c4=O)c3C)c2C)cc(F)c1CNC1CCOCC1 [Example 1.053] | < 10 |
| COc1cc(-c2cccc(-c3cccc(NC(=O)c4nn(C)c(=O)n(C)c4=O)c3C)c2C)cc(F)c1CNCc1c[nH]c(=O)[nH]c1=O [Example 1.054] | < 10 |
| COc1cc(-c2cccc(-c3cccc(NC(=O)c4nn(C)c(=O)n(C)c4=O)c3C)c2C)cc(F)c1CNC1CCNC(=O)C1 (stereo not shown) [Example 1.055] | < 10 |
| COc1cc(-c2cccc(-c3cccc(NC(=O)c4nn(C)c(=O)n(C)c4=O)c3C)c2C)cc(F)c1CNC[C@@H]1CCC(=O)N1C [Example 1.056] | < 10 |
| COc1cc(-c2cccc(-c3cccc(NC(=O)c4cn(C)c(=O)n(C)c4=O)c3C)c2C)cc(F)c1CN[C@@H]1COC[C@H]1O [Example 1.057] | < 10 |
| COc1cc(-c2cccc(-c3cccc(NC(=O)c4nn(C)c(=O)n(C)c4=O)c3C)c2C)cc(F)c1CN[C@@H]1CCC(=O)NC1=O [Example 1.058] | 10 to 1000 |
| COc1cc(-c2cccc(-c3cccc(NC(=O)c4nn(C)c(=O)n(C)c4=O)c3C)c2C)cc(F)c1CN[C@@H]1CCCNC1=O [Example 1.059] | 10 to 1000 |
